Common to all, as to assay type: functional
The subject of test [1] is Bacillus subtilis. As to the kind of experiment: Antimicrobial activity against Bacillus subtilis using pH 4.0 buffer as solvent by agar diffusion test. (In general: Agar diffusion results depend on both activity and mobility in agar.)
Test [2] relates to Pseudomonas aeruginosa. As to the kind of experiment: Antimicrobial activity against Pseudomonas aeruginosa using pH 4.0 buffer as solvent by agar diffusion test.
The subject of test [3] is Staphylococcus aureus. As to the kind of experiment: Antimicrobial activity against Staphylococcus aureus using pH 4.0 buffer as solvent by agar diffusion test.
Test [4] relates to Escherichia coli. As to the kind of experiment: Antimicrobial activity against Escherichia coli using pH 4.0 buffer as solvent by agar diffusion test.
Test [5] deals with Pseudomonas aeruginosa. As to the kind of experiment: Antimicrobial activity against Pseudomonas aeruginosa using distilled water as solvent by agar diffusion test.
Test [6] relates to Escherichia coli. As to the kind of experiment: Antimicrobial activity against Escherichia coli using distilled water as solvent by agar diffusion test.
Test [7] deals with Bacillus subtilis. As to the kind of experiment: Antimicrobial activity against Bacillus subtilis using distilled water as solvent by agar diffusion test.
Test [8] concerns Staphylococcus aureus. As to the kind of experiment: Antimicrobial activity against Staphylococcus aureus using distilled water as solvent by agar diffusion test.

In brackets after ≈: the same amount, converted by molar mass.

A word on the MIC: it is the lowest concentration that inhibits growth of the organism. Lower therefore signals greater potency.

On to `CC[C@H]1C[C@H]2C[C@@]3(C(=O)OC)c4[nH]c5cc(OC)ccc5c4CCN(C2O)[C@@H]13` (some centres undefined), for which the MIC was 50 µg/mL (≈ 130 µM) against Bacillus subtilis [1], 300 µg/mL (≈ 780 µM) in the test on Pseudomonas aeruginosa [2], 500 µg/mL (≈ 1300 µM) against Staphylococcus aureus [3] and 500 µg/mL (≈ 1300 µM) in the test on Escherichia coli [4].
`C=CC1CN(C)[C@H]2Cc3c([nH]c4ccccc34)[C@H](c3cc4c5c([nH]c4cc3OC)[C@]3(C(=O)OC)C[C@@H]4C[C@H](CC)[C@@H]3N(CC5)C4O)C[C@H]1C2C(=O)OC` (some centres undefined): the MIC against Bacillus subtilis [1] came out at 8 µg/mL (≈ 11.1 µM); in the test with Pseudomonas aeruginosa [2], 65 µg/mL (≈ 90.2 µM); with Staphylococcus aureus [3] it was 65 µg/mL (≈ 90.2 µM); in the test on Escherichia coli [4], 170 µg/mL (≈ 236 µM).
As for `C=CC1CN(C)[C@H]2Cc3c([nH]c4ccccc34)[C@H](c3c(OC)ccc4c5c([nH]c34)[C@]3(C(=O)OC)C[C@@H]4C[C@H](CC)[C@@H]3N(CC5)C4O)C[C@H]1C2C(=O)OC` (some centres undefined), the minimum inhibitory concentration (MIC) against Bacillus subtilis [1] was found to be 14 µg/mL (≈ 19.4 µM); in the test on Pseudomonas aeruginosa [2], 150 µg/mL (≈ 208 µM); against Staphylococcus aureus [3], 45 µg/mL (≈ 62.4 µM); against Escherichia coli [4], 750 µg/mL (≈ 1040 µM).
Turning to `CC[C@H]1C[C@H]2C[C@@]3(C(=O)OC)c4[nH]c5cc(OC)c(OC)cc5c4CCN(C2O)[C@@H]13` (some centres undefined), the MIC with Bacillus subtilis [1] is 60 µg/mL (≈ 145 µM); with Pseudomonas aeruginosa [2], more than 1000 µg/mL; against Staphylococcus aureus [3] it was 140 µg/mL (≈ 338 µM); in the test on Escherichia coli [4] it was more than 1000 µg/mL.
Consider `C=CC1CN(C)[C@H]2Cc3c([nH]c4ccccc34)[C@H](c3cc4c5c([nH]c4cc3OC)[C@]3(C(=O)OC)C[C@@H]4C[C@H](CC)[C@@H]3N(CC5)C4)C[C@H]1C2C(=O)OC` (some centres undefined) [CONODURAMINE], for which the MIC worked out at 15 µg/mL (≈ 21.3 µM) in the test with Bacillus subtilis [1], 400 µg/mL (≈ 567 µM) in the test with Pseudomonas aeruginosa [2], 35 µg/mL (≈ 49.7 µM) against Staphylococcus aureus [3] and 110 µg/mL (≈ 156 µM) in the test on Escherichia coli [4].
On the same counts, the results for `C=CC1CN(C)[C@H]2Cc3c([nH]c4ccccc34)[C@H](c3c(OC)ccc4c5c([nH]c34)[C@]3(C(=O)OC)C[C@@H]4C[C@H](CC)[C@@H]3N(CC5)C4)C[C@H]1C2C(=O)OC` (some centres undefined) [CONODURINE] are 4 µg/mL (≈ 5.67 µM), 400 µg/mL (≈ 567 µM), 50 µg/mL (≈ 70.9 µM) and 70 µg/mL (≈ 99.3 µM).
As to `CN[C@@H]1[C@H](O[C@H]2[C@H](O[C@H]3[C@H](O)[C@@H](O)[C@H](N=C(N)N)[C@@H](O)[C@@H]3N=C(N)N)O[C@@H](C)[C@]2(O)C=O)O[C@@H](CO)[C@H](O)[C@H]1O` [STREPTOMYCIN], the MIC with Pseudomonas aeruginosa [5] was determined as 12 µg/mL (≈ 20.6 µM); against Escherichia coli [6], 0.5 µg/mL (≈ 0.86 µM); in the test with Bacillus subtilis [1], 1 µg/mL (≈ 1.72 µM); against Pseudomonas aeruginosa [2], 7 µg/mL (≈ 12 µM); against Bacillus subtilis [7], 0.2 µg/mL (≈ 0.344 µM); with Staphylococcus aureus [3], 5 µg/mL (≈ 8.6 µM). Also, the MIC against Staphylococcus aureus [8] is 1 µg/mL (≈ 1.72 µM); against Escherichia coli [4] it was 80 µg/mL (≈ 138 µM).
Turning to `C=CC1CN(C)[C@@H]2Cc3c([nH]c4ccccc34)[C@@H](/C=C3\c4[nH]c5ccccc5c4CN4CC[C@H]3/C(=C\C)C4)C[C@@H]1C2C(=O)OC` (some centres undefined) [VOBAPARICINE], the MIC with Bacillus subtilis [1] was found to be 50 µg/mL (≈ 83.2 µM); against Escherichia coli [4], 100 µg/mL (≈ 166 µM).

(Values after ChEMBL document CHEMBL1151651, “Antimicrobially active alkaloids from Tabernaemontana chippii” (1985).)
